LC50 data for 22 molecules are collected here from patent publication US20240150356A1, “Pyrimidine amide compounds and use thereof” (ALPHALA CO., LTD., priority 2019, published 2024).

A value given as a limit tells only on which side of the number the result lay.

In general, LC50 refers to the concentration that kills 50% of the test population.

In the first experiment the test system is Hep3B cells (hepatocellular carcinoma cell line). Briefly: In vitro MTS cell viability assay (NCI-60 methodology), Hep3B. The conditions noted are these: Homo sapiens, 48 h, Table 1, MTS, 2 days drug incubation, 50% reduction vs time zero, read-out: Hep3B LC50. It counts as cell-based. Put shortly: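 Following NCI-60 method, MTS viability of Hep3B measured 24 h after plating (time zero) and after a further 2-day exposure to five concentrations (2-fold series). LC50 defined where [(Ti−Tz)/Tz]×100 = −50.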
(Tetrazolium dyes change colour on reduction, which living cells bring about.)
With `O=C(Nc1nc(-c2ccc(OC(F)(F)F)cc2)nc2c1cnn2CCN1CCOCC1)c1ccc([N+](=O)[O-])s1` [Compound 1-30, N-(1-(2-morpholinoethyl)-6-(4-(trifluoromethoxy)phenyl)-1H-pyrazolo[3,4-d]pyrimidin-4-yl)-5-nitrothiophene-2-carboxamide], the median lethal concentration (LC50) came to 1700 nM.

The experiment is the same for the next values; noted with them: Homo sapiens, 48 h, Table 3, MTS, 2 days drug incubation, 50% reduction vs time zero, read-out: Hep3B LC50.
As to `Cc1nn(C)c2c(NC(=O)c3ccc([N+](=O)[O-])s3)nc(-c3ccc(C(F)(F)F)cc3)nc12` [Compound 3-1, N-(1,3-dimethyl-5-(4-(trifluoromethyl)phenyl)-1H-pyrazolo[4,3-d]pyrimidin-7-yl)-5-nitrothiophene-2-carboxamide], the LC50 is 2220 nM.

As for `Cc1nn(C)c2c(NC(=O)c3ccc([N+](=O)[O-])s3)nc(-c3cccc(OC(F)(F)F)c3)nc12` [Compound 3-4, N-(1,3-dimethyl-5-(3-(trifluoromethoxy)phenyl)-1H-pyrazolo[4,3-d]pyrimidin-7-yl)-5-nitrothiophene-2-carboxamide], the LC50 came to 1510 nM.

Still in this experiment, the particulars now being: Homo sapiens, 48 h, Table 5, MTS, 2 days drug incubation, 50% reduction vs time zero, read-out: Hep3B LC50.
Consider `O=C(Nc1nc(-c2ccc(Cl)c(F)c2)nc2c1cnn2-c1ccccc1)c1ccc([N+](=O)[O-])s1` [Compound 5-46, N-(6-(4-chloro-3-fluorophenyl)-1-phenyl-1H-pyrazolo[3,4-d]pyrimidin-4-yl)-5-nitrothiophene-2-carboxamide], for which the LC50 came to 240 nM.

On to `O=C(Nc1nc(-c2ccc(Cl)c(Cl)c2)nc2c1cnn2-c1ccccc1)c1ccc([N+](=O)[O-])s1` [Compound 5-48, N-(6-(3,4-dichlorophenyl)-1-phenyl-1H-pyrazolo[3,4,d]pyrimidin-4-yl)-5-nitrothiophene-2-carboxamide], for which the LC50 stood at 410 nM.

Consider `O=C(Nc1nc(-c2cccc(F)c2)nc2c1cnn2-c1ccccc1)c1ccc([N+](=O)[O-])s1` [Compound 5-26, N-(6-(3-fluorophenyl)-1-phenyl-1H-pyrazolo[3,4-d]pyrimidin-4-yl)-5-nitrothiophene-2-carboxamide], for which the LC50 turned out to be 410 nM.

With `O=C(Nc1nc(C2CCNCC2)nc2c1cnn2-c1ccccc1)c1ccc([N+](=O)[O-])s1` [Compound 5-1, 5-nitro-N-(1-phenyl-6-(piperidin-4-yl)-1H-pyrazolo[3,4-d]pyrimidin-4-yl)thiophene-2-carboxamide], the LC50 is greater than 5000 nM.

Still in this experiment, the particulars now being: Homo sapiens, 48 h, Table 6, MTS, 2 days drug incubation, 50% reduction vs time zero, read-out: Hep3B LC50.
For `O=C(Nc1nc(-c2ccccc2F)nc2c1cnn2-c1ccc(F)cc1)c1ccc([N+](=O)[O-])s1` [Compound 6-113, N-(6-(2-fluorophenyl)-1-(4-fluorophenyl)-1H-pyrazolo[3,4-d]pyrimidin-4-yl)-5-nitrothiophene-2-carboxamide], the 50% lethal concentration (LC50) is 400 nM.

On to `CCOCCOc1ccc(-c2nc(NC(=O)c3ccc([N+](=O)[O-])s3)c3cnn(-c4cccc(Cl)c4)c3n2)cn1` [Compound 6-44, N-(1-(3-chlorophenyl)-6-(6-(2-ethoxyethoxy)pyridin-3-yl)-1H-pyrazolo[3,4-d]pyrimidin-4-yl)-5-nitrothiophene-2-carboxamide], for which the median lethal concentration (LC50) amounted to 450 nM.

Consider `CCOCCOCCOC[C@@H]1CCCN1c1nc(NC(=O)c2ccc([N+](=O)[O-])s2)c2cnn(-c3ccc(C(C)(C)C)cc3)c2n1` [Compound 6-72, (S)—N-(1-(4-(tert-butyl)phenyl)-6-(2-((2-(2-ethoxyethoxy)ethoxy)methyl)pyrrolidin-1-yl)-1H-pyrazolo[3,4-d]pyrimidin-4-yl)-5-nitrothiophene-2-carboxamide], for which the LC50 came to 670 nM.

Regarding `CC(C)(C)c1ccc(-n2ncc3c(NC(=O)c4ccc([N+](=O)[O-])s4)nc(-c4ccc(F)cc4)nc32)cc1` [Compound 6-81, N-(1-(4-(tert-butyl)phenyl)-6-(4-fluorophenyl)-1H-pyrazolo[3,4-d]pyrimidin-4-yl)-5-nitrothiophene-2-carboxamide], the 50% lethal concentration (LC50) amounted to 940 nM.

Turning to `CCOCCOCCOc1cc(Cl)ccc1-c1nc(NC(=O)c2ccc([N+](=O)[O-])s2)c2cnn(-c3ccc(F)cc3)c2n1` [Compound 6-140, N-(6-(4-chloro-2-(2-(2-ethoxyethoxy)ethoxy)phenyl)-1-(4-fluorophenyl)-1H-pyrazolo[3,4-d]pyrimidin-4-yl)-5-nitrothiophene-2-carboxamide], the median lethal concentration (LC50) was 4830 nM.

Turning to `CC(C)(C)c1ccc(-n2ncc3c(NC(=O)c4ccc([N+](=O)[O-])s4)nc(-c4ccccc4F)nc32)cc1` [Compound 6-79, N-(1-(4-(tert-butyl)phenyl)-6-(2-fluorophenyl)-1H-pyrazolo[3,4-d]pyrimidin-4-yl)-5-nitrothiophene-2-carboxamide], the LC50 worked out at 690 nM.

`CC(C)(C)c1ccc(-n2ncc3c(NC(=O)c4ccc([N+](=O)[O-])s4)nc(N4CCC[C@H]4C(=O)O)nc32)cc1` [Compound 6-70, (1-(4-(tert-butyl)phenyl)-4-(5-nitrothiophene-2-carboxamido)-1H-pyrazolo[3,4-d]pyrimidin-6-yl)-L-proline]: the 50% lethal concentration (LC50) was greater than 1250 nM.

Staying with this experiment, now noted: Homo sapiens, 48 h, Table 7, MTS, 2 days drug incubation, 50% reduction vs time zero, read-out: Hep3B LC50.
For `O=C(Nc1nc(-c2ccc(Cl)cc2)nc2c1cnn2Cc1ccccc1)c1ccc([N+](=O)[O-])s1` [Compound 7-16, N-(1-benzyl-6-(4-chlorophenyl)-1H-pyrazolo[3,4-d]pyrimidin-4-yl)-5-nitrothiophene-2-carboxamide], the median lethal concentration (LC50) is greater than 1250 nM.

Still in this experiment, the particulars now being: Homo sapiens, 48 h, Table 8, MTS, 2 days drug incubation, 50% reduction vs time zero, read-out: Hep3B LC50.
With `CC(C)N1CC[C@H](n2ncc3c(NC(=O)c4ccc([N+](=O)[O-])s4)nc(-c4ccc(F)nc4)nc32)C1` [Compound 8-1, (S)—N-(6-(6-fluoropyridin-3-yl)-1-(1-isopropylpyrrolidin-3-yl)-1H-pyrazolo[3,4-d]pyrimidin-4-yl)-5-nitrothiophene-2-carboxamide], the 50% lethal concentration (LC50) is greater than 3000 nM.

The same experiment, now with this note: Homo sapiens, 48 h, Table 10, MTS, 2 days drug incubation, 50% reduction vs time zero, read-out: Hep3B LC50.
Consider `Cc1noc(C)c1-c1nc(NC(=O)c2ccc([N+](=O)[O-])s2)c2cnn(C3CCCCC3)c2n1` [Compound 10-9, N-(1-cyclohexyl-4-(3,5-dimethylisoxazol-4-yl)-1H-pyrazolo[3,4,d]pyrimidin-4-yl)-5-nitrothiophene-2-carboxamide], for which the LC50 was 1070 nM.

Take `COC(=O)c1cccc(-c2nc(NC(=O)c3ccc([N+](=O)[O-])s3)c3cnn(C4CCCCC4)c3n2)c1` [Compound 10-31, methyl 3-(1-cyclohexyl-4-(5-nitrothiophene-2-carboxamido)-1H-pyrazolo[3,4-d]pyrimidin-6-yl)benzoate]: the LC50 stood at 580 nM.

Take `O=C(Nc1nc(N2CCC(F)(F)C2)nc2c1cnn2C1CCCCC1)c1ccc([N+](=O)[O-])s1` [Compound 10-1, N-(1-cyclohexyl-6-(3,3-difluoropyrrolidin-1-yl)-1H-pyrazolo[3,4-d]pyrimidin-4-yl)-5-nitrothiophene-2-carboxamide]: the LC50 is 1250 nM.

As to `O=C(Nc1nc(N2CCC(F)(F)CC2)nc2c1cnn2C1CCCCC1)c1ccc([N+](=O)[O-])s1` [Compound 10-2, N-(1-cyclohexyl-6-(4,4-difluoropiperidin-1-yl)-1H-pyrazolo[3,4-d]pyrimidin-4-yl)-5-nitrothiophene-2-carboxamide], the 50% lethal concentration (LC50) came out at 3120 nM.

As to `CC1CC(C)CC(n2ncc3c(NC(=O)c4ccc([N+](=O)[O-])s4)nc(-c4ccc(Cl)cc4F)nc32)C1` (stereo not shown) [Compound 10-72, N-(6-(4-chloro-2-fluorophenyl)-1-(3,5-dimethylcyclohexyl)-1H-pyrazolo[3,4-d]pyrimidin-4-yl)-5-nitrothiophene-2-carboxamide], the LC50 was determined as 760 nM.

For `O=C(Nc1nc(-c2ccsc2)nc2c1cnn2C1CCCCC1)c1ccc([N+](=O)[O-])s1` [Compound 10-6, N-(1-cyclohexyl-6-(thiophen-3-yl)-1H-pyrazolo[3,4-d]pyrimidin-4-yl)-5-nitrothiophene-2-carboxamide], the LC50 stood at 1030 nM.
